Tests used:
androgen receptor [1] = target: T1, androgen receptor (Homo sapiens, UniProt P10275); assay type: cell-based; set-up: expressed in transfected cells
T1 sequence (P10275 1-920): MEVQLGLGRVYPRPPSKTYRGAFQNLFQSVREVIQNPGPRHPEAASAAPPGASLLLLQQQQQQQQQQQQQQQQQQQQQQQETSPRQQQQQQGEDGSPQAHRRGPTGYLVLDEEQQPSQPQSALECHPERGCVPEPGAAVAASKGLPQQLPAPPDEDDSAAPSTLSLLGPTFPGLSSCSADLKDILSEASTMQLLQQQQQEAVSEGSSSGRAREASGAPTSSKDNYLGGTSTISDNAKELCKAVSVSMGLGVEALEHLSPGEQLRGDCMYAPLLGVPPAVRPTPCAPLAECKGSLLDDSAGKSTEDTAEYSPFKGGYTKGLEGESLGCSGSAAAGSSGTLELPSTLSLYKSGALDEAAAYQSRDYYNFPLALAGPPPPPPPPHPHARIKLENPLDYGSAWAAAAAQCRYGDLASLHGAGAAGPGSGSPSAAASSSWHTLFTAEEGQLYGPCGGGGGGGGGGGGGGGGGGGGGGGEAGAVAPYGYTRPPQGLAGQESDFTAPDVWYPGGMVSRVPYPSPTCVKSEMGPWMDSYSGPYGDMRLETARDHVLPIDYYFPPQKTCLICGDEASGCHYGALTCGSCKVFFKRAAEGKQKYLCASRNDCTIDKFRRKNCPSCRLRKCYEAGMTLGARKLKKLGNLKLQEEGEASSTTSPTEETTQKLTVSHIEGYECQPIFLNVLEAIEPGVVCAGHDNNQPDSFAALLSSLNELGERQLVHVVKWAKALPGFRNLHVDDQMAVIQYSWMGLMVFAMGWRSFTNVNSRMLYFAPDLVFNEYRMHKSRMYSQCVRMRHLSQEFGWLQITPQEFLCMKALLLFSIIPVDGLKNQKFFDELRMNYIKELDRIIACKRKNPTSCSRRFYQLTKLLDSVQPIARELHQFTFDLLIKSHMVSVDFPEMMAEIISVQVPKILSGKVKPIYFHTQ
Excerpt: We used a mammalian two-hybrid system to determine specificities of the AR-binding peptides previously identified, through screening of the aforementioned yeast library, as ligand-dependent in their binding activity. Ligand was provided to the cells so the interaction could be observed. The human hepatoma cell line, Huh-7, was used as the recipient of two-hybrid vectors, pM and pVP16 (Clontech) (FIGS. 6A and 6B), containing fusions with peptide and AR, respectively. According to Clontech literature, the Clontech vectors pM and VP16 generate fusions of protein X with the GAL4 DNA-BD and fusions of protein Y with the VP16AD, in the Mammalian MM Two-Hybrid Assay Kit (#K1602-1). (Note: pM and VP16 contain unique cloning sites in the same order and reading frame as the DNA-BD and AD, respectively, vectors in the yeast […] Two-Hybrid Systems.) A third vector, pG5CAT, provides a CAT reporter gene under the control of a GAL4-responsive element and minimal promoter of the adenovirus E1b. The three vectors are cotransfected into any suitable mammalian host cell line by standard methods. The interaction between proteins X and Y is then assayed by measuring CAT gene expression by any standard method. In the absence of activation (i.e., no protein-protein interaction), the minimal E1b promoter will not express significant levels of CAT.
Briefly, cells are seeded in a 24-well culture plate to a density of 50-80% confluence in phenol red-free media containing charcoal-dextran stripped fetal bovine serum (10%). Following incubation overnight, cells are transfected with plasmids pM-peptide, pVP16-AR, pCMV-b-gal, and p5XGAL-Luc3 DNAs using lipofectamine 2000 (LifeTech) according to the manufacturer's protocol. Transfections are allowed to proceed for 6 hours and the transfection media is aspirated and replaced with recovery media for 18 hours. Following the recovery period, cells are treated with compound for 24 hours prior to cell harvesting. Cells are washed with PBS and then lysed using the lysis buffer from the Galacto-Light Plus β-galactosidase assay kit (Tropix). Assays for luciferase and β-galactosidase were performed as described by the manufacturer. Peptide/AR interactions are described in terms of the luciferase activity normalized for transfection efficiency using β-galactosidase activity (see FIG. 4A). Two types of useful information arose from these methods: 1) we generated a panel of useful peptide probes to analyze the conformational state of AR, and 2) we “fingerprinted” AR modulators with respect to AR conformation (FIG. 4B). […] FIG. 4B is the converse of 4A. It compares the ability of six ligands (DHT, MPA, CYP, RU486, FLUT and DHEAs to interact with AR in the presence of each of four peptides (D30, 5G11, B8H3 and […]). Thus, it is a “fingerprint” of each of the six ligands using a four peptide panel. (Note that “1269” and D30” refer to the same peptide.)

androgen receptor [2] = target: T1, androgen receptor; assay type: cell-based; set-up: expressed in transfected cells; remark: listed apart in the source
androgen receptor [3] = target: T1, androgen receptor; assay: Yeast two-hybrid screening of unbiased X15 peptide library, ligand induced β-galactosidase activity (FIG. 3, Table 503); assay type: cell-based; set-up: expressed in transfected cells; host or cells: Saccharomyces cerevisiae PJ69-4α; ligand induced β-galactosidase activity, No Lig / ligand induced β-galactosidase activity, DHT / ligand induced β-galactosidase activity, CPA / ligand induced β-galactosidase activity, RU / ligand induced β-galactosidase activity, Test / ligand induced β-galactosidase activity, MPA: unit not given here
Excerpt: Our library contained predominantly 15 random amino acid residues/peptide in order to identify motifs that might interact with nuclear receptor domains. If ligand is provided to the cells, one can screen for peptides that interact with the ligand-bound receptor. […] Included at the ends of the oligonucleotide were the synthetic restriction endonuclease cleavage sites, EcoRI or Mfe I (5′ end) and Sal I (3′ end). Oligonucleotides were annealed, then cleaved with excess restriction endonuclease and purified on agarose gels. The purified set of oligonucleotides was subcloned as an in-frame carboxy-terminal fusion to a Gal4 DNA binding domain (plasmid vector pMA424 derivative). […] The transformation mix was divided and grown on plates of selective media containing ligand and 25 mM 3-aminotriazole at 30° C. until colonies appeared in 3-7 days. […] Dihydrotestosterone (DHT) and medroxyprogesterone (MPA) were added to the media at 100 nM to identify peptides that interact with the receptor in the presence of ligand. After colonies appeared they were picked and dispersed into individual wells of a 96-well plate containing rich media (YPD).
To determine ligand dependence, two microliter aliquots were removed from the cell suspension, and arrayed and spotted onto each of two rectangular agar plates, one with 100 nM ligand and one without ligand. Growth was monitored daily.
A secondary test of ligand dependent activation was performed using the integrated GAL4-driven lacZ gene. Cell suspensions of the initial positive clones were diluted 20-fold into 20 microliters of rich media in a microplate and grown overnight at 30° C. in the presence and absence of ligand. Microplates were centrifuged for 5 minutes at 3000 rpm in a swinging table top centrifuge to pellet the yeast cells, and the overlying media was aspirated. […] An OD650 density determination was made to normalize the β-galactosidase activity. β-galactosidase activity was monitored following the addition of buffer containing chlorophenol red-β-galactopyranoside (CPRG) (Boehringer Mannheim) substrate at a final concentration of 0.5 mM. […] The maximum slope value of this measurement was normalized to cell density from the initial OD650 value, and the relative ligand dependence of β-galactosidase was determined by comparing the values plus and minus ligand.
In FIG. 3, all of these ligands were tested. The plasmids from true positives were extracted using standard yeast extraction protocols and re-transformed to verify the positive phenotype.

[4] = target: T2, ER β (immobilized, in vitro phage assays), Q92731; assay: phage ELISA; raloxifene 1 µM
T2 chain: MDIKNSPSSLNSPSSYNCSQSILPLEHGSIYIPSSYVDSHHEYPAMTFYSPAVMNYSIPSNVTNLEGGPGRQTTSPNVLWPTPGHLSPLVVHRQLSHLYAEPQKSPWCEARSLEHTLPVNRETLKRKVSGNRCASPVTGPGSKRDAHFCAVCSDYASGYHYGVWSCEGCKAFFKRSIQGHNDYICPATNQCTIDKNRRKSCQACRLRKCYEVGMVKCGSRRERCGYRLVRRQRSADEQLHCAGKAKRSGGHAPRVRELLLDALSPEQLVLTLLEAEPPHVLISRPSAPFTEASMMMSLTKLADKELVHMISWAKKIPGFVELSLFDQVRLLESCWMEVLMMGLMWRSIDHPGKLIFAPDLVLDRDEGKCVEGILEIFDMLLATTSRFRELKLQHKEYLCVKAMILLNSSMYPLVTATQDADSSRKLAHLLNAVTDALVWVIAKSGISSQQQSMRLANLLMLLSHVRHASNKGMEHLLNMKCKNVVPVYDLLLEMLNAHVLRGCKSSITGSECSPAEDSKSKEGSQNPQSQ

[5] = target: T2, ER β (immobilized, in vitro phage …); assay: phage ELISA; ICI 182,780 1 µM
[6] = target: T2, ER β (immobilized, in vitro phage …); assay: phage ELISA; clomiphene 10 µM
[7] = target: T2, ER β (immobilized, in vitro phage …); assay: phage ELISA; 4-OH tamoxifen 1 µM

EFQQCMCAEVKSWLGGSLDLQPS* [B8E9]
luciferase normalized to β-galactosidase, CYP. (androgen receptor [1]): 16.02 | luciferase normalized to β-galactosidase, DHT (androgen receptor [1]; mammalian two-hybrid, Huh-7 cells, ligand DHT): 19.64 | luciferase normalized to β-galactosidase, MPA (androgen receptor [1]; mammalian two-hybrid, Huh-7 cells, ligand MPA): 18.51 | luciferase normalized to β-galactosidase, RU486 (androgen receptor [1]; mammalian two-hybrid, Huh-7 cells, ligand RU486): 10.1916 | luciferase normalized to β-galactosidase, no compound (androgen receptor [1]; mammalian two-hybrid, Huh-7 cells, no compound): 0.2091 | Binding to the androgen receptor in the presence of both agonists and known antagonists (androgen receptor [2]; ligand present): displays binding | Binding to the androgen receptor in the absence of ligand (androgen receptor [2]; no ligand): not | Fold induction (androgen receptor [3]; untitled table before Table 503, values match DHT / No Lig of Table 503): 4 | ligand induced β-galactosidase activity, CPA (androgen receptor [3]; yeast two-hybrid, ligand CPA): 0.5635 | ligand induced β-galactosidase activity, DHT (androgen receptor [3]; yeast two-hybrid, ligand DHT): 1.75 | ligand induced β-galactosidase activity, RU (androgen receptor [3]; yeast two-hybrid, ligand RU): 0.8 | ligand induced β-galactosidase activity, No Lig (androgen receptor [3]; yeast two-hybrid, no ligand): 0.4989

B1: Phage # 4 (Table 2) (peptide)
peptide: SSNHQSSRLIELLSR
modifications: not checked
phage ELISA grade [4]: 0 | phage ELISA grade [5]: 0 | phage ELISA grade [6]: 0 | phage ELISA grade [7]: 0
